In PMC3214044, “In Vitro Recombination of Non-Homologous Genes Can Result in Gene Fusions that Confer a Switching Phenotype to Cells” (PLoS ONE, 2011):

Tests used:
c4 = test system: T1, c4; settings: read-out: Km (μM) / - Maltose; 10 mM sodium phosphate pH 7.0, 37°C, without maltose; BLA domain site; substrate range 100-400 µM, above the Km
T1 construct: gene malE

Ph8 = test system: T2, Ph8; settings: read-out: Km (μM) / - Maltose; 10 mM sodium phosphate pH 7.0, 37°C, without maltose; BLA domain site
T2 construct: gene malE

CC1(C)S[C@@H]2[C@H](NC(=O)[C@H](N)c3ccccc3)C(=O)N2[C@H]1C(=O)O [ampicillin]
Km (c4): 73 ± 4 µM
Km (Ph8): 730 ± 120 µM
